# Patent USRE38046E1, “Enhancement of the cellular immune response” (Biomira, Inc., priority 1986, dated 2003)
# Tests used:
# [1] = system: DTH effector cells; assay: Local transfer of DTH: antigen-primed spleen/T cells co-injected with triggering antigen into foot pad, net DTH swelling; assay type: in vivo, mice
# [2] = system: TA3Ha cells; assay: Priming with antigen, challenge 2-3 days later with live TA3Ha cells, survival; assay type: in vivo, mice
# Excerpt: Groups of five mice at a time were primed with specific doses of T-alpha (TF) (Ta), T-beta (Tb) (asialo-GM1 disaccharide) and Tn S-Tags. After 2-3 days, they were challenged with 3×10^3 live TA3Ha cells.
# Groups of five mice were primed with specific doses of epi. After 2-3 days they were challenged with 3′10^3 live TA3Ha cells.
substance,measurement,setting,value
Epiglycanin,DTH reaction,"[1]; cells primed with the priming Ag, triggering Ag Fuc",not to those carbohydrate determinants which are not represented on epiglycanin
same,DTH reaction,"[1]; cells primed with the priming Ag, triggering Ag Ta, listed as epi","reaction was with the T alpha, T beta and Tn determinants"
same,DTH reaction,"[1]; cells primed with the priming Ag, triggering Ag Tb, listed as epi","reaction was with the T alpha, T beta and Tn determinants"
same,DTH reaction,"[1]; cells primed with the priming Ag, triggering Ag Tn, listed as epi","reaction was with the T alpha, T beta and Tn determinants"
same,DTH reaction,[1]; triggering antigen Epi-M (epi linked to SEPHAROSE microspheres),induced a specific DTH response
same,DTH reaction,[1]; triggering antigen irradiated TA3Ha cells,induced a specific DTH response
same,In Vivo Protection: Number of animals alive at 4 weeks,[2]; Dose of Ag 0.1 ug,1/20
same,In Vivo Protection: Number of animals alive at 4 weeks,[2]; Dose of Ag 0.5 ug,5/20
same,In Vivo Protection: Number of animals alive at 4 weeks,[2]; Dose of Ag 1.0 ug,8/20
same,In Vivo Protection: Number of animals alive at 4 weeks,[2]; Dose of Ag 5.0 ug,8/15
same,In Vivo Protection: Number of animals alive at 4 weeks,[2]; Dose of Ag 10.0 ug,7/20
same,No. alive (at d. 9),[2]; priming dose 0.2 ug,2/5
same,Survival ave.,[2]; priming dose 0.2 ug,33.8 days
same,No. alive (at d. 9),[2]; priming dose 1 ug,4/5
same,Survival ave.,[2]; priming dose 1 ug,44.2 days
same,No. alive (at d. 9),[2]; priming dose 2 ug,4/5
same,Survival ave.,[2]; priming dose 2 ug,25.2 days
same,No. alive (at d. 9),[2]; priming dose 10 ug,0/4
same,Survival ave.,[2]; priming dose 10 ug,22.3 days
same,No. alive (at d. 9),[2]; priming dose 20 ug,1/5
same,Survival ave.,[2]; priming dose 20 ug,29.0 days
same,No. alive (at d. 9),[2]; priming dose 100 ug,1/5
same,Survival ave.,[2]; priming dose 100 ug,25.5 days
same,protection against TA3Ha tumor cells,[2]; summary of Table 3,did provide protection
